Like-named read-outs stand apart in the source and are kept apart here.
Columns and labels:
Assay type in all cases: biochemical
PI3Kδ = PI3Kδ (Homo sapiens (Human), UniProt O00329); assay: TR-FRET enzymatic assay of PI3K isoforms (PI3Kδ); conditions: 2×Km ATP, 2 μM PIP2, incubated for 30 minutes at 25° C., read-out: δ IC50
Protocol: (§1) The compounds of formula (I) were characterized for their enzymatic activity against the PI3K isoforms. Certain compounds of the present application, including certain compounds of formula (II) and (III) were also characterized for their enzymatic activity against PI3K isoforms. The activities were measured using a time-resolved fluorescence resonance energy transfer (TR-FRET) assay.

PI3Kβ = PI3Kβ (Homo sapiens (Human), UniProt P42338); assay: TR-FRET enzymatic assay of PI3K isoforms (PI3Kβ); conditions: TR-FRET, 2×Km ATP, 2 μM PIP2, incubated for 30 minutes at 25° C.; read-out: β IC50
Sequence of PI3Kβ (P42338 whole entry, canonical isoform): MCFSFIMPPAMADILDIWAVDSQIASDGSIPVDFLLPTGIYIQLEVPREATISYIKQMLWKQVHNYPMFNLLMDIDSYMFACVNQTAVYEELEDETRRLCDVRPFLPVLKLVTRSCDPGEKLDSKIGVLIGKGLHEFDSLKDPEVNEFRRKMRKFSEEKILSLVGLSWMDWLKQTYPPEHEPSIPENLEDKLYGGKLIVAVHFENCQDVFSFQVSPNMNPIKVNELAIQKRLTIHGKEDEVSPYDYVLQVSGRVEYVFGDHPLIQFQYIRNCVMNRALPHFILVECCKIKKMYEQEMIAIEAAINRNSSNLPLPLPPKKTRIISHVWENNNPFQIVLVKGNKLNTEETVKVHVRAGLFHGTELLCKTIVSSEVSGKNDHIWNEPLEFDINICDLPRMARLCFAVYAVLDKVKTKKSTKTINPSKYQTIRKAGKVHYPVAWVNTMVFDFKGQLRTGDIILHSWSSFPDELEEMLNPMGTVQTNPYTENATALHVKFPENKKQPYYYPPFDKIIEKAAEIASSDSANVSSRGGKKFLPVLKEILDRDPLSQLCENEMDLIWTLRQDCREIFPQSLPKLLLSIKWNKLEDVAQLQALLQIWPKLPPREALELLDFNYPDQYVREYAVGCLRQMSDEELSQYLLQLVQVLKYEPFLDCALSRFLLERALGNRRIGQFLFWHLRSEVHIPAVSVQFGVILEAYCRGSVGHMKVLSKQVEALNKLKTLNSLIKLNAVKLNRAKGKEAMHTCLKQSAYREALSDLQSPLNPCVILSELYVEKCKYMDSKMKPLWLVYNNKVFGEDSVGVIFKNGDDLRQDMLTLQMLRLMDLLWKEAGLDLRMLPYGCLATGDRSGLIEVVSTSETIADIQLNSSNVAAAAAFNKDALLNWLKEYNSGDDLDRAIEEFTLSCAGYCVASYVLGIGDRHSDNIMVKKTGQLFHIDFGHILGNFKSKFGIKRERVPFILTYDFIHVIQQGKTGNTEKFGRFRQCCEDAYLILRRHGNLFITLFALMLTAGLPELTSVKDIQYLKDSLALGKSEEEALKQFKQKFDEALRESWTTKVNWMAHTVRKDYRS
Sequence of PI3Kβ (P27986 whole entry partner, canonical isoform): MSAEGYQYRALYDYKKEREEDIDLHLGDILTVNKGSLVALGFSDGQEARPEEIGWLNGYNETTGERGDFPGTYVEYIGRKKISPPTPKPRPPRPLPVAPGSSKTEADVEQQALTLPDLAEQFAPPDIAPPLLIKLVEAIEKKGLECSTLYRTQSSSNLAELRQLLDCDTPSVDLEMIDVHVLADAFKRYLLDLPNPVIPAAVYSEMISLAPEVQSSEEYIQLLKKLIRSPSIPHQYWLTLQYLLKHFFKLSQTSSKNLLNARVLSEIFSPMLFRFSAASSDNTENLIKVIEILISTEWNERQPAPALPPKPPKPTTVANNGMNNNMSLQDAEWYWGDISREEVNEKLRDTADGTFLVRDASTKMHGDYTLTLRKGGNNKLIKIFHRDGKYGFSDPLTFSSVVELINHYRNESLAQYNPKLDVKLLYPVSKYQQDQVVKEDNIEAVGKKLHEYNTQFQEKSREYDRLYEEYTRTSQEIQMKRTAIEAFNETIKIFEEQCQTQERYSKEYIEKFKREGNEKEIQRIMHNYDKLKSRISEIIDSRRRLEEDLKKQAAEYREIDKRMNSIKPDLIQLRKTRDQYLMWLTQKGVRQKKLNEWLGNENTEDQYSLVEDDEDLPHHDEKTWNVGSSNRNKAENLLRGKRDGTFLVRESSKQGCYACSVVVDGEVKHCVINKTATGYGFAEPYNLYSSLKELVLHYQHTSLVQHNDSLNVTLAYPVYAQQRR
Protocol: as §1

PI3Kγ = PI3Kγ (Homo sapiens (Human), UniProt P48736); assay: TR-FRET enzymatic assay of PI3K isoforms (PI3Kγ); conditions: read-out: γ IC50
Sequence of PI3Kγ (P48736 whole entry, canonical isoform): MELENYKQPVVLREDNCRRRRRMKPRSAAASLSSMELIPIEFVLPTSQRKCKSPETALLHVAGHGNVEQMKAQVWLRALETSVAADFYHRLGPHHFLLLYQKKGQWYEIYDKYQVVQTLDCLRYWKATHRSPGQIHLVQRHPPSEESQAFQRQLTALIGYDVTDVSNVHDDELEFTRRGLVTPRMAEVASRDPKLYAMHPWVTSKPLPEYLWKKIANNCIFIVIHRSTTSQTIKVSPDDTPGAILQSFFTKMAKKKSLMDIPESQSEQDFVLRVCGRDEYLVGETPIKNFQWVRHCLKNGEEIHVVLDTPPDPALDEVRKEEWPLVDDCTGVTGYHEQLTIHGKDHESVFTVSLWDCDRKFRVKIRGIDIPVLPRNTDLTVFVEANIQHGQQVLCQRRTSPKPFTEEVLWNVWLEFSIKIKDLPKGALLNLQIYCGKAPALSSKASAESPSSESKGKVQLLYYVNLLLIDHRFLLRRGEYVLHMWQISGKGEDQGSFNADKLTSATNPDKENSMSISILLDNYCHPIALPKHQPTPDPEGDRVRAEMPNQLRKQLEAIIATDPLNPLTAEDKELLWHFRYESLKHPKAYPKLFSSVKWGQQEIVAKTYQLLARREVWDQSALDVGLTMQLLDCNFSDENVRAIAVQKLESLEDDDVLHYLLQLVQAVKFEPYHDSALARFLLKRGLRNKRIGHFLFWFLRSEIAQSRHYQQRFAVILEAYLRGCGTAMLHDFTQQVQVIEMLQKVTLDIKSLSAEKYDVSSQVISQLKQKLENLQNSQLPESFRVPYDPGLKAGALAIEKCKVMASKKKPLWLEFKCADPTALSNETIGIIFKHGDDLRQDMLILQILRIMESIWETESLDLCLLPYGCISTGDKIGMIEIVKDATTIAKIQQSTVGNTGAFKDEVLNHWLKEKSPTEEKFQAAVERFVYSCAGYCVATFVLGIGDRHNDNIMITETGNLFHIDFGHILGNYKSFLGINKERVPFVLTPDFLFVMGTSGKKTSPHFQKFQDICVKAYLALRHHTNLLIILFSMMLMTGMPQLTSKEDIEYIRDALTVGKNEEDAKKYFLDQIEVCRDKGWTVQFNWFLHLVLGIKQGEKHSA
Sequence of PI3Kγ (Q8WYR1 whole entry partner, canonical isoform): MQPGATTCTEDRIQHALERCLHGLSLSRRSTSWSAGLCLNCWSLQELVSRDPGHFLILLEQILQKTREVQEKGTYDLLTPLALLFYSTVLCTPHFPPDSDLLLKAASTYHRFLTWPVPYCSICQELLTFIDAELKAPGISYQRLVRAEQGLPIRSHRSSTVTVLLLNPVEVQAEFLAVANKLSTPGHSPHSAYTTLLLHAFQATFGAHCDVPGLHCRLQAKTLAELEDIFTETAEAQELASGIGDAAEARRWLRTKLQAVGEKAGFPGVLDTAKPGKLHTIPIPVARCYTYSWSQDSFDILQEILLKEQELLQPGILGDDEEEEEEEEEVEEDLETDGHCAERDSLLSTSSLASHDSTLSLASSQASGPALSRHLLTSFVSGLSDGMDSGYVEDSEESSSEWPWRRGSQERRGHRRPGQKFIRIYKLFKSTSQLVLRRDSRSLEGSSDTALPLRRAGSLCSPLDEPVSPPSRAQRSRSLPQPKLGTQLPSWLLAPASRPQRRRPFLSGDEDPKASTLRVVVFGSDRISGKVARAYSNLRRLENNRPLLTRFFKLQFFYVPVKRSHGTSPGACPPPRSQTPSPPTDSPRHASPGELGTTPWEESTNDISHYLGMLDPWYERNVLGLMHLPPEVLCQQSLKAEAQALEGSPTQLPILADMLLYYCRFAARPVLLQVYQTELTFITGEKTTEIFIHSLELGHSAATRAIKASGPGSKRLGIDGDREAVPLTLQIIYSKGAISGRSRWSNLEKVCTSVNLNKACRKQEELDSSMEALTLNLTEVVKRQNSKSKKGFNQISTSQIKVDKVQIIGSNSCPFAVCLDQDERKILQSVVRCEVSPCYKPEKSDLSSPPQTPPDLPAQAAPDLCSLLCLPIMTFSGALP
Protocol: as §1

[1] = TR-FRET, 2×Km ATP, 2 μM PIP2, PI3Kγ at 2 nM, incubated for 30 minutes at 25° C.

Sequence of PI3Kδ (O00329 whole entry, canonical isoform): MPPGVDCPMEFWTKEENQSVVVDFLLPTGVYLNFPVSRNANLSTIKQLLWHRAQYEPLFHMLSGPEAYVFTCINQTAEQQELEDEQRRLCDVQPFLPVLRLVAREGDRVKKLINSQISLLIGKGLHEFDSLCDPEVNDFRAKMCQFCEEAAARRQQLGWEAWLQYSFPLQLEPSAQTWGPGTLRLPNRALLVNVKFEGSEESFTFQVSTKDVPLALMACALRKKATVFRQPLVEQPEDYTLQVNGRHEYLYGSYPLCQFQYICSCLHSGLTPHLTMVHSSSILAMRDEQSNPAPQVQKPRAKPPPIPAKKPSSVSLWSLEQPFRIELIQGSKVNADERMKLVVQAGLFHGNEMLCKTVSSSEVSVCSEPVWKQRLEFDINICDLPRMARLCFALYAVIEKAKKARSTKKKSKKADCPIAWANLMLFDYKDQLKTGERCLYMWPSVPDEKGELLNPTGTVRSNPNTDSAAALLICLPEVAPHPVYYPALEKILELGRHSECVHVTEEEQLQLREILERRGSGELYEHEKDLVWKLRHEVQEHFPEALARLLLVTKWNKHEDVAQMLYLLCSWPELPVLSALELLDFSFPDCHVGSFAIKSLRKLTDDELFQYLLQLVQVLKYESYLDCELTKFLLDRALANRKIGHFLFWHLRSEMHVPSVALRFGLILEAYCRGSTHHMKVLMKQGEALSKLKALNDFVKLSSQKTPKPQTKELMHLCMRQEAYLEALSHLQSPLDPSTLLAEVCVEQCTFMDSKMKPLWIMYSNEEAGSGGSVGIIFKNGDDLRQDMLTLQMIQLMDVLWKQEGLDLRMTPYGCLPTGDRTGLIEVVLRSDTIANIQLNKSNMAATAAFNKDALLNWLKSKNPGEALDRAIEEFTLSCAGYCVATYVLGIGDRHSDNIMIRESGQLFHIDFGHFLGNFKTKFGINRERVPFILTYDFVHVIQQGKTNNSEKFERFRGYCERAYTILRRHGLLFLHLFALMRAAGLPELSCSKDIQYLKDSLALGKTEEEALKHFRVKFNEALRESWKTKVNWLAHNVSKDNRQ
Sequence of PI3Kδ (P27986 whole entry partner, canonical isoform): as the sequence (P27986 whole entry partner, canonical isoform) above

Structure (SMILES) | IC50 (PI3Kδ) [nM] | IC50 (PI3Kβ) [nM] | IC50 (PI3Kγ; [1]) [nM] | IC50 (PI3Kγ) [nM]
CC(O)CNC(=O)Nc1cccc(-n2c([C@H](C)Nc3ncnc(N)c3C#N)nc3cccc(Cl)c3c2=O)c1 (stereo partly drawn) [Compound 129, 1-(3-(2-((S)-1-((6-amino-5-cyanopyrimidin-4-yl)amino)ethyl)-5-chloro-4-oxoquinazolin-3(4H)-yl)phenyl)-3-(2-hydroxypropyl)urea] | 4 | 9 | 5600 | –
O=C(NCCCO)Nc1cccc(-n2c([C@H](COCc3ccccc3)Nc3ncnc4[nH]cnc34)nc3cccc(Cl)c3c2=O)c1 [Compound 131, (R)-1-(3-(2-(1-((9H-purin-6-yl)amino)-2-(benzyloxy)ethyl)-5-chloro-4-oxoquinazolin-3(4H)-yl)phenyl)-3-(3-hydroxypropyl)urea] | 41 | 43 | – | > 10000
CCNC(=O)Nc1cccc(-n2c([C@H](COCc3ccccc3)Nc3ncnc(N)c3C#N)nc3cccc(Cl)c3c2=O)c1 [Compound 132, (R)-1-(3-(2-(1-((6-amino-5-cyanopyrimidin-4-yl)amino)-2-(benzyloxy)ethyl)-5-chloro-4-oxoquinazolin-3(4H)-yl)phenyl)-3-ethylurea] | 10 | 21 | 8700 | –
COCCCNC(=O)Nc1cccc(-n2c([C@H](C)Nc3ncnc(N)c3C#N)nc3cccc(Cl)c3c2=O)c1 [Compound 134, (S)-1-(3-(2-(1-((6-amino-5-cyanopyrimidin-4-yl)amino)ethyl)-5-chloro-4-oxoquinazolin-3(4H)-yl)phenyl)-3-(3-methoxypropyl)urea] | 10 | 5 | 6000 | –
COCCCNC(=O)Nc1cccc(-n2c([C@H](C)Nc3ncnc4[nH]cnc34)nc3cccc(Cl)c3c2=O)c1 [Compound 135, (S)-1-(3-(2-(1-((9H-purin-6-yl)amino)ethyl)-5-chloro-4-oxoquinazolin-3(4H)-yl)phenyl)-3-(3-methoxypropyl)urea] | 35 | 16 | 3500 | –
CCNC(=O)Nc1cccc(-n2c([C@H](C)Nc3ncnc(N)c3C(=O)O)nc3cccc(Cl)c3c2=O)c1 [Compound 136, (S)-4-amino-6-((1-(5-chloro-3-(3-(3-ethylureido)phenyl)-4-oxo-3,4-dihydroquinazolin-2-yl)ethyl)amino)pyrimidine-5-carboxylic acid] | 610 | 1800 | > 10000 | –
C[C@H](Nc1ncnc(N)c1C#N)c1nc2cccc(Cl)c2c(=O)n1-c1cccc(NC(=O)NCCC(=O)O)c1 [Compound 137, (S)-3-(3-(3-(2-(1-((6-amino-5-cyanopyrimidin-4-yl)amino)ethyl)-5-chloro-4-oxoquinazolin-3(4H)-yl)phenyl)ureido)propanoic acid] | 12 | 33 | 7600 | –
C[C@H](Nc1ncnc(N)c1C#N)c1nc2cccc(Cl)c2c(=O)n1-c1cccc(NC(=O)NC(C)(C)CO)c1 [Compound 138, (S)-1-(3-(2-(1-((6-amino-5-cyanopyrimidin-4-yl)amino)ethyl)-5-chloro-4-oxoquinazolin-3(4H)-yl)phenyl)-3-(1-hydroxy-2-methylpropan-2-yl)urea] | 7 | 4 | 5200 | –
C[C@H](Nc1ncnc(N)c1C#N)c1nc2cccc(Cl)c2c(=O)n1-c1cccc(NC(=O)NC(C)(C)C(=O)O)c1 [Compound 139, (S)-2-(3-(3-(2-(1-((6-amino-5-cyanopyrimidin-4-yl)amino)ethyl)-5-chloro-4-oxoquinazolin-3(4H)-yl)phenyl)ureido)-2-methylpropanoic acid] | 13 | 30 | 8100 | –
C[C@H](Nc1ncnc(N)c1C#N)c1nc2cccc(Cl)c2c(=O)n1-c1cccc(NC(=O)NC(C)(C)CCO)c1 [Compound 140, (S)-1-(3-(2-(1-((6-amino-5-cyanopyrimidin-4-yl)amino)ethyl)-5-chloro-4-oxoquinazolin-3(4H)-yl)phenyl)-3-(4-hydroxy-2-methylbutan-2-yl)urea] | 5 | 6 | 5100 | –
C[C@H](Nc1ncnc(N)c1C#N)c1nc2cccc(Cl)c2c(=O)n1-c1cccc(NC(=O)NCC(C)(C)CO)c1 [Compound 141, (S)-1-(3-(2-(1-((6-amino-5-cyanopyrimidin-4-yl)amino)ethyl)-5-chloro-4-oxoquinazolin-3(4H)-yl)phenyl)-3-(3-hydroxy-2,2-dimethylpropyl)urea] | 6 | 6 | 1600 | –
C[C@H](Nc1ncnc(N)c1C#N)c1nc2cccc(Cl)c2c(=O)n1-c1cccc(NC(=O)NCCC(C)(C)O)c1 [Compound 142, (S)-1-(3-(2-(1-((6-amino-5-cyanopyrimidin-4-yl)amino)ethyl)-5-chloro-4-oxoquinazolin-3(4H)-yl)phenyl)-3-(3-hydroxy-3-methylbutyl)urea] | 6 | 12 | 7100 | –
C[C@H](Nc1ncnc(N)c1C#N)c1nc2cccc(Cl)c2c(=O)n1-c1cccc(NC(=O)Nc2ccccc2OCCO)c1 [Compound 143, (S)-1-(3-(2-(1-((6-amino-5-cyanopyrimidin-4-yl)amino)ethyl)-5-chloro-4-oxoquinazolin-3(4H)-yl)phenyl)-3-(2-(2-hydroxyethoxy)phenyl)urea] | 5 | 7 | 1500 | –
C[C@H](Nc1ncnc(N)c1C#N)c1nc2cccc(Cl)c2c(=O)n1-c1cccc(NC(=O)Nc2ccccc2S(C)(=O)=O)c1 [Compound 144, (S)-1-(3-(2-(1-((6-amino-5-cyanopyrimidin-4-yl)amino)ethyl)-5-chloro-4-oxoquinazolin-3(4H)-yl)phenyl)-3-(2-(methylsulfonyl)phenyl)urea] | 4 | 17 | 6500 | –
C[C@H](Oc1ncnc2scnc12)c1nc2cccc(Cl)c2c(=O)n1-c1cccc(NC(=O)NC2CCCC2)c1 [Compound 146, (S)-1-(3-(5-chloro-4-oxo-2-(1-(thiazolo[5,4-d]pyrimidin-7-yloxy)ethyl)quinazolin-3(4H)-yl)phenyl)-3-cyclopentylurea] | 6 | 57 | 2200 | –
C[C@H](Oc1ncnc2scnc12)c1nc2cccc(Cl)c2c(=O)n1-c1cccc(NC(=O)NC2(C(F)(F)F)CC2)c1 [Compound 147, (S)-1-(3-(5-chloro-4-oxo-2-(1-(thiazolo[5,4-d]pyrimidin-7-yloxy)ethyl)quinazolin-3(4H)-yl)phenyl)-3-(1-(trifluoromethyl)cyclopropyl)urea] | 12 | 16 | 2300 | –
C[C@H](Oc1ncnc2scnc12)c1nc2cccc(Cl)c2c(=O)n1-c1cccc(NC(=O)NCC(F)F)c1 [Compound 148, (S)-1-(3-(5-chloro-4-oxo-2-(1-(thiazolo[5,4-d]pyrimidin-7-yloxy)ethyl)quinazolin-3(4H)-yl)phenyl)-3-(2,2-difluoroethyl)urea] | 5 | 8 | 1800 | –
C[C@H](Oc1ncnc2scnc12)c1nc2cccc(Cl)c2c(=O)n1-c1cccc(NC(=O)Nc2cc(C(F)(F)F)no2)c1 [Compound 150, (S)-1-(3-(5-chloro-4-oxo-2-(1-(thiazolo[5,4-d]pyrimidin-7-yloxy)ethyl)quinazolin-3(4H)-yl)phenyl)-3-(3-(trifluoromethyl)isoxazol-5-yl)urea] | 5 | 47 | 840 | –
CCNC(=O)Nc1cccc(-n2c([C@H](C)Oc3ncnc4scnc34)nc3cccc(Cl)c3c2=O)c1 [Compound 151, (S)-1-(3-(5-chloro-4-oxo-2-(1-(thiazolo[5,4-d]pyrimidin-7-yloxy)ethyl)quinazolin-3(4H)-yl)phenyl)-3-ethylurea] | 4 | 20 | 1300 | –
C[C@H](Oc1ncnc2scnc12)c1nc2cccc(Cl)c2c(=O)n1-c1cccc(NC(=O)NCC(F)(F)C(F)(F)F)c1 [Compound 152, (S)-1-(3-(5-chloro-4-oxo-2-(1-(thiazolo[5,4-d]pyrimidin-7-yloxy)ethyl)quinazolin-3(4H)-yl)phenyl)-3-(2,2,3,3,3-pentafluoropropyl)urea] | 10 | 17 | 2500 | –
CONC(=O)Nc1cccc(-n2c([C@H](C)Oc3ncnc4scnc34)nc3cccc(Cl)c3c2=O)c1 [Compound 153, (S)-1-(3-(5-chloro-4-oxo-2-(1-(thiazolo[5,4-d]pyrimidin-7-yloxy)ethyl)quinazolin-3(4H)-yl)phenyl)-3-methoxyurea] | 4 | 48 | 1600 | –
CC(Oc1ncnc2scnc12)c1nc2cccc(Cl)c2c(=O)n1-c1cccc(NC(=O)NCC(F)(F)F)c1 (stereo not drawn) [Compound 154, 1-(3-(5-chloro-4-oxo-2-(1-(thiazolo[5,4-d]pyrimidin-7-yloxy)ethyl)quinazolin-3(4H)-yl)phenyl)-3-(2,2,2-trifluoroethyl)urea] | 5 | 4 | 1400 | –
CC(Oc1ncnc2scnc12)c1nc2cccc(Cl)c2c(=O)n1-c1cccc(NC(=O)Nc2ccccc2Cl)c1 (stereo not drawn) [Compound 156, 1-(3-(5-chloro-4-oxo-2-(1-(thiazolo[5,4-d]pyrimidin-7-yloxy)ethyl)quinazolin-3(4H)-yl)phenyl)-3-(2-chlorophenyl)urea] | 2 | 41 | 930 | –
C[C@H](Oc1ncnc2scnc12)c1nc2cccc(Cl)c2c(=O)n1-c1cccc(NC(=O)NCC2OCCO2)c1 [Compound 157, (S)-1-((1,3-dioxolan-2-yl)methyl)-3-(3-(5-chloro-4-oxo-2-(1-(thiazolo[5,4-d]pyrimidin-7-yloxy)ethyl)quinazolin-3(4H)-yl)phenyl)urea] | 7 | 25 | 3100 | –
